What was measured:
Format in all cases: cell-based
[1] = system: Staphylocoocus aureus ATCC 6538; experiment: Antimicrobial activity MIC/MBC test, Staphylocoocus aureus ATCC 6538; conditions: read-out: MBC (minimum bactericidal concentration)
Method: (§1) The four reference strains were indications of the minimum inhibitory concentration (MIC) and minimum bactericidal concentration (MBC) tests conducted for two newly synthesized compounds of the new quaternary ammonium salts derivatives: 4-[2-(4-bromophenyl)-2-oxoethyl]tetrahydro[1,3]oxazolo[2,3-b][1,3]oxazol-4-ium bromide and 4-[2-(biphenyl-4-yl)-2-oxoethyl]tetrahydro[1,3]oxazolo[2,3-b][1,3]oxazol-4-ium bromide. The study was carried out on strains: Staphylocoocus aureus ATCC 6538, Escherichia coli ATCC 25922, Pseudomonas aeruginosa ATCC 6749, Candida albicans ATCC 10231,

[2] = system: Escherichia coli ATCC 25922; experiment: Antimicrobial activity MIC/MBC test, Escherichia coli ATCC 25922; conditions: ATCC25922, read-out: MBC (minimum bactericidal concentration)
Method: as §1

[3] = system: Pseudomonas aeruginosa ATCC 6749; experiment: Antimicrobial activity MIC/MBC test, Pseudomonas aeruginosa ATCC 6749; conditions: for MBC: ATCC6749, read-out: MBC (minimum bactericidal concentration); for MIC: ATCC6749, read-out: MIC (minimum inhibitory concentration)
Method: as §1

[4] = system: Candida albicans ATCC 10231; experiment: Antimicrobial activity MIC/MBC test, Candida albicans ATCC 10231; conditions: ATCC10231, read-out: MBC (minimum bactericidal concentration)
Method: as §1

MIC [3] [mg/mL]	SMILES	MBC [1] [mg/mL]	MBC [2] [mg/mL]	MBC [3] [mg/mL]	MBC [4] [mg/mL]
13.9	O=C(C[N+]12CCOC1OCC2)c1ccc(-c2ccccc2)cc1.[Br-] (stereo not shown) [4-[2-(biphenyl-4-yl)-2-oxoethyl]tetrahydro[1,3]oxazolo[2,3-b][1,3]oxazol-4-ium bromide]	0.43	3.47	55.5	6.94
27.8	O=C(C[N+]12CCOC1OCC2)c1ccc(Br)cc1.[Br-] (stereo not shown) [4-[2-(4-bromophenyl)-2-oxoethyl]tetrahydro[1,3]oxazolo[2,3-b][1,3]oxazol-4-ium bromide]	1.73	6.94	27.8	27.8
